Reference: patent US7390830B1, “Remedies or prophylactics for diseases in association with chemokines” (Teijin Limited, priority 1999, dated 2008)

Experiments:
[1] = molecular target: T1, human MCP-1 binding to THP-1 cells (Homo sapiens, UniProt P41597); assay: Inhibitory activity against binding of [125I]-labeled human MCP-1 to THP-1 cells (method 1); conditions: concentration of 10 μM
T1 construct: endogenous in cells; host or cells: THP-1 (whole cells)
T1 sequence (P41597 1-360 isoform P41597-2): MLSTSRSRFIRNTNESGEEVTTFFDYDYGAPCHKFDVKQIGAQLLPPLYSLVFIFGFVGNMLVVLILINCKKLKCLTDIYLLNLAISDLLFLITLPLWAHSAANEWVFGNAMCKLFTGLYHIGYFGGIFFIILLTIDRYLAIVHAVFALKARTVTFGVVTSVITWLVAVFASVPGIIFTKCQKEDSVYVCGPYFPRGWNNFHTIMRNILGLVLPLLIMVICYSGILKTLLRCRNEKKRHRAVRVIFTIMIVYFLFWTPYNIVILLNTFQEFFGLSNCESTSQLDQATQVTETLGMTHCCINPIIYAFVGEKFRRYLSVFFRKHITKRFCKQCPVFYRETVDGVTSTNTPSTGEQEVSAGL
Description: Two kinds of DNA synthetic primers (5′-[…]-3′ (SEQ ID NO:1) and 5′-[…]-3′) (SEQ ID NO:2) having restriction enzyme recognition sites applied on the basis of the known human MCP-1 gene sequence (see, for example, Yoshimura, T. et al. FEBS Letters 1989, 244, 487-493) were used to amplify a cDNA derived from human vascular endothelial cells (purchased from Kurabow) according to a PCR method. The amplified fragment was cleaved with restriction enzymes (PstI and XbaI) and then ligated into a transfer vector pVL1393 (Invitrogen Co.). The resulting vector was co-transfected with an infectious baculovirus into Sf-9 insect cells. […]
(§1) After completing the reaction, the reaction solution was filtered through a filter, and the filter was washed with 200 μL of cold PBS twice (the reaction solution was filtered after adding 200 μL of the cold PBS). The filter was air-dried and 25% L of liquid scintillator was then added into each well to count the radioactivity retained by the cells on the filter using TopCount (Packard Instrument Co.).
(§2) The count when 100 ng of the above human MCP-1 expressed with baculovirus (unlabeled) instead of the test compound was added was subtracted as nonspecific adsorption, and the count when the test compound was not added was taken as 100%. Thereby, the inhibitory activity of the test compound against binding of the human MCP-1 to THP-1 cells was calculated. […]

[2] = tested on: glomerulonephritis induced by anti-glomerular basement membrane serum; assay: Masugi's nephritis model in WKY rats; type: in vivo; conditions: for inhibition of the concentration of urinary proteins / decrease of creatinine concentration in blood: vs control; for decrease of creatinine concentration in blood: 15th day after antiserum
Method: Rabbits were immunized with a trypsin fraction of rat kidney cortex to provide an anti-glomerular basement membrane serum which was intravenously injected to 4-weeks-old female WKY rats (Charles River) in a dose of 2.5 mL/kg body weight to induce glomerulonephritis. After injection of the antiserum, urine of each animal was collected for 24 hours with metabolic cages for rats (Clea Japan, Inc.) on the 1st, 4th, 7th, 10th and 14th days after the injection. The amount of the urine was measured by urine weight and the protein content in the urine was measured by using a kit for assaying proteins in urine and cerebrospinal fluid (Tonein TP-II, Otsuka Pharmaceutical Co., Ltd.) to determine the amount of proteins excreted in urine per day. Serum of the animals subjected to the experiments was collected on the 15th day after injecting the antiserum, and creatinine concentration in blood was measured with a creatinine assay kit (Autosera®), Daiichi Pure Chemicals Co., Ltd.) using a Hitach±7070 model autoanalyzer. The test compound was daily orally administered in a dose of 100 mg/kg body weight twice a day from the date of injecting the anti-glomerular basement membrane serum (about 10:00 a.m. and about 6:00 p.m. in Experiment 1 and about 10:00 a.m. and about 5:00 p.m. in Experiment 2). In the control group, only the solution (a 0.5% aqueous solution of sodium carboxymethylcellulose) was orally administered. The administration volume was 10 mL/kg body weight, and the number of animals (N) was 10.

[3] = tested on: chronic relapsing experimental allergic encephalomyelitis; assay: Chronic relapsing experimental allergic encephalomyelitis in mice; type: in vivo, SJL/J×PL/J F1 mice; conditions: for Onset Date, First Attack: SJL/J×PL/J F1 mice; for Onset Date, First Attack / Duration of Clinical Sign, First Attack / Onset Date, Second Attack (Relapse): to 41 days after injection of the emulsion; for Maximal Clinical Score, First Attack / Maximal Clinical Score, Second Attack (Relapse): score 0-5, to 41 days after injection of the emulsion
[4] = tested on: collagen-induced arthritis; assay: Collagen-induced arthritis in rats; type: in vivo, Lewis female rats; conditions: 300 mg/kg orally every day for 3 weeks, 5, 7, 9, 12 and 14 days after boosting
[5] = molecular target: T2, human MIP-1 α binding to THP-1 cells (Homo sapiens, UniProt P32246); assay: Inhibitory activity against binding of MIP-1 α to THP-1 cells; conditions: concentration of 2 μM
T2 construct: endogenous in cells; host or cells: THP-1 (whole cells)
T2 sequence (P32246 1-355): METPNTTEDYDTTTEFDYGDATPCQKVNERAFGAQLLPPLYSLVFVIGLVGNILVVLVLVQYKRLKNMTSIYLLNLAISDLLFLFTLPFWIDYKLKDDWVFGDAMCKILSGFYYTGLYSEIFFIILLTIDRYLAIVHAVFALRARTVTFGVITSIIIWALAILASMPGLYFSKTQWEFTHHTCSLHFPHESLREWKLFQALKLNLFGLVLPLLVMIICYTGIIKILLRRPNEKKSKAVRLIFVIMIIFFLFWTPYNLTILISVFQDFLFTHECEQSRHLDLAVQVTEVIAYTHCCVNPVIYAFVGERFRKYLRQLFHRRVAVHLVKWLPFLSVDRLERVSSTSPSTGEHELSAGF
Method: THP-1 cells which are human monocytic leukemia cell line were suspended in an assay buffer [prepared by adding 0.1% of BSA and 25 mM of HEPES to RPMI-1640 (Gibco-BRL Co.) and adjusting the pH to 7.4] so as to provide 1×10^7 cells/mL to thereby afford a cell suspension. A solution obtained by diluting the test compound with the assay buffer was used as a test compound solution. A solution prepared by diluting an iodine-labeled human MIP-1 α (DuPont NEN Co.) with the assay buffer so as to provided 250 nCi/mL was used as a labeled ligand solution. […]
as §1, with “air-dried,” for “air-dried”, “25 μL” for “25% L”
as §2, with “an unlabeled” for “the above”, “MIP-1 α (Peprotech Co.)” for “MCP-1 expressed with baculovirus (unlabeled)”, “MIP-1 α” for “MCP-1”

[6] = tested on: collagen-induced arthritis; assay: Collagen-induced arthritis in mice; type: in vivo, DBA/1 mice
[7] = 7th day after antiserum, 100 mg/kg orally twice a day
[8] = 10th day after antiserum, 100 mg/kg orally twice a day
[9] = 14th day after antiserum, 100 mg/kg orally twice a day
[10] = 300 mg/kg body weight oral, to 21 days after injection of the emulsion
[11] = 300 mg/kg body weight orally, vs control
[12] = 100 mg/kg body weight orally, vs control

O=C(CNC(=O)c1cccc(C(F)(F)F)c1)NCC1CCN(Cc2cccc(OC(F)(F)F)c2)CC1 [Compd. No. 927, 1-[3-(trifluoromethoxy)benzyl]-4-[(N-(3-(trifluoromethyl)benzoyl)glycyl)aminomethyl]piperidine] showed an inhibition at 10 µM [1] of 20 to 50%.
For Nc1cc(F)c(F)cc1C(=O)NCC(=O)NCC1CCN(Cc2ccc(Cl)cc2)CC1 [compound 1245], the “inhibition of the concentration of urinary proteins” value (from here on “inhibition … of urinary proteins”) ([2]; 4th day after antiserum, 100 mg/kg orally twice a day) was 74%, the “inhibition … of urinary proteins” value [2, 7] was 85% and the “inhibition … of urinary proteins” value [2, 8] was 81%. The “inhibition … of urinary proteins” value [2, 9] was 82%, the “decrease of creatinine concentration in blood” value ([2]; 100 mg/kg orally twice a day) was 10% and the “Serum Creatinine Concentration on the 15th Day” value ([2]; WKY rats, Experiment 2, 100 mg/kg body weight orally twice a day, 15th day after injecting anti-glomerular basement membrane serum, mean ± spread) was 0.48 ± 0.04 mg/dL. For the same compound, the “Maximal Clinical Score” value ([3]; 300 mg/kg body weight oral, score 0-5, to 21 days after injection of the emulsion) was 2.5 ± 1.5, the “Duration of Clinical Sign” value [3, 10] was 5.4 ± 2.4 and the “Incidence (Number of Onset Animals/Number of Immunized Animals)” value [3, 10] was 17/19. The “onset date” value [3, 10] was 13.2 ± 2.4, the onset date [3, 11] was “delay in onset date (p<0.05)” and the “symptoms (clinical scores)” value [3, 11] was “tendency to inhibit symptoms (no significant difference)”. For the same compound, the “joint swelling (hindlimb footpad volume)” value [4] was “significantly inhibited joint swelling”.
In the case of CCOc1cccc(C(=O)N[C@H](Cc2ccccc2)C(=O)NCC2CCN(Cc3ccc(Cl)cc3)CC2)c1 [Compd. No. 2091, 1-(4-chlorobenzyl)-4-[[N-(3-ethoxybenzoyl)-D-phenylalanyl]aminomethyl]piperidine], the inhibition at 2 µM [5] is reported as 50 to 80%.
For Nc1ccc(C(F)(F)F)cc1C(=O)NCC(=O)N[C@@H]1CCN(Cc2ccc(Cl)cc2)C1 [Compd. No. 1583], the “chondrolysis of articular cartilages” value ([6]; knee joint, oral 12 weeks) was “significantly inhibited”, the “osteolysis of subchondral bone” value ([6]; knee joint, oral 12 weeks) was “significantly inhibited” and the synovial hyperplasia ([6]; knee joint, oral 12 weeks) was “significantly inhibited”. For the same compound, the arthritis scores ([6]; orally once a day for 12 weeks, vs control group) was “significantly inhibited arthritis scores”, the “inhibition … of urinary proteins” value [2, 7] was 26% and the “inhibition … of urinary proteins” value [2, 8] was 51%. For the same compound, the “inhibition … of urinary proteins” value [2, 9] was 54%, the “decrease of creatinine concentration in blood” value ([2]; 100 mg/kg orally twice a day) was 20% and the “Serum Creatinine Concentration” value ([2]; on the 15th Day, 100 mg/kg orally twice a day) was 0.39 ± 0.03 mg/dL. For the same compound, the “Onset Date, First Attack” value ([3]; 30 mg/kg body weight oral) was 12.3 ± 1.9, the “Maximal Clinical Score, First Attack” value ([3]; 30 mg/kg body weight oral) was 3.5 ± 0.9 and the “Maximal Clinical Score, Second Attack (Relapse)” value ([3]; 30 mg/kg body weight oral) was 3.7 ± 0.6. The “Duration of Clinical Sign, First Attack” value ([3]; 30 mg/kg body weight oral) was 9.8 ± 3.3, the “Onset Date, Second Attack (Relapse)” value ([3]; 30 mg/kg body weight oral) was 26.3 ± 3.4 and the “onset date, symptoms and onset period at the first attack” value ([3]; 30 mg/kg body weight orally, vs control) was “distinct effects on the items were not found”. For the same compound, the “Onset Date, First Attack” value ([3]; 100 mg/kg body weight oral) was 13.6 ± 2.0, the “Maximal Clinical Score, First Attack” value ([3]; 100 mg/kg body weight oral) was 2.4 ± 1.3 and the “Maximal Clinical Score, Second Attack (Relapse)” value ([3]; 100 mg/kg body weight oral) was 3.0 ± 0.9. For the same compound, the “Duration of Clinical Sign, First Attack” value ([3]; 100 mg/kg body weight oral) was 5.7 ± 3.8, the “Onset Date, Second Attack (Relapse)” value ([3]; 100 mg/kg body weight oral) was 28.5 ± 4.7 and the “onset date at the first attack” value [3, 12] was “tendency to delay the onset date (no significant difference)”. The “onset period at the first attack” value [3, 12] was “shortening of onset period (p<0.05)” and the “symptoms (clinical scores) at the first attack” value [3, 12] was “symptom inhibition (p<0.05)”.
